{
  "source": "ChEMBL document CHEMBL4699646",
  "about": "“Eleutheroside E Enhances the Long-Term Memory of Radiation-Damaged C. elegans through G-Protein-Coupled Receptor and Neuropeptide Signaling Pathways” (J Nat Prod, 2020)",
  "key": {"[1]": {"system": "Caenorhabditis elegans", "test": "Memory enhancement effect in Caenorhabditis elegans N2 assessed as increase in long-term memory index at 0.1 mg/ml preincubated for 24 hrs followed by gamma-radiation treatment and measured after 24 hrs", "format": "functional, organism-based", "conditions": "time 48.0 hrs"}, "[2]": {"system": "Caenorhabditis elegans", "test": "Protective activity against radioactive-induced Caenorhabditis elegans N2 at 0.05 to 0.2 mg/ml preincubated for 24 hrs followed by gamma-radiation treatment and measured after 24 hrs", "format": "functional, organism-based", "conditions": "dose mg/ml 0.05-0.2, time 48.0 hrs"}, "[3]": {"system": "Caenorhabditis elegans", "test": "Protective activity against radioactive-induced Caenorhabditis elegans N2 assessed as head thrashes preincubated for 24 hrs followed by gamma-radiation treatment and measured after 24 hrs", "format": "functional, organism-based", "conditions": "time 48.0 hrs"}, "[4]": {"system": "Caenorhabditis elegans", "test": "Protective activity against radioactive-induced Caenorhabditis elegans N2 assessed as body bends preincubated for 24 hrs followed by gamma-radiation treatment and measured after 24 hrs", "format": "functional, organism-based", "conditions": "time 48.0 hrs"}, "[5]": {"system": "Caenorhabditis elegans", "test": "Protective activity against Butanone-induced Caenorhabditis elegans N2 assessed as chemotaxis index incubated for 1 hr", "format": "functional, organism-based"}, "[6]": {"system": "Caenorhabditis elegans", "test": "Inhibition of neuropeptide signaling pathway in radioactive-induced Caenorhabditis elegans N2 assessed as down regulation of npr-11 mRNA expression preincubated for 24 hrs followed by gamma-radiation treatment and measured after 24 hrs qRT-PCR analysis", "conditions": "time 48.0 hrs"}, "[7]": {"system": "Caenorhabditis elegans", "test": "Inhibition of neuropeptide pathway in radioactive-induced Caenorhabditis elegans N2 assessed as down regulation of npr-2 mRNA expression preincubated for 24 hrs followed by gamma-radiation treatment and measured after 24 hrs qRT-PCR analysis", "conditions": "time 48.0 hrs"}, "[8]": {"system": "Caenorhabditis elegans", "test": "Inhibition of neuropeptide pathway in radioactive-induced Caenorhabditis elegans N2 assessed as down regulation of nlp-23 mRNA expression preincubated for 24 hrs followed by gamma-radiation treatment and measured after 24 hrs qRT-PCR analysis", "conditions": "time 48.0 hrs"}, "[9]": {"system": "Caenorhabditis elegans", "test": "Inhibition of neuropeptide pathway in radioactive-induced Caenorhabditis elegans N2 assessed as down regulation of nlp-5 mRNA expression preincubated for 24 hrs followed by gamma-radiation treatment and measured after 24 hrs qRT-PCR analysis", "conditions": "time 48.0 hrs"}, "[10]": {"system": "Caenorhabditis elegans", "test": "Inhibition of neuropeptide pathway in radioactive-induced Caenorhabditis elegans N2 assessed as down regulation of nlp-1 mRNA expression preincubated for 24 hrs followed by gamma-radiation treatment and measured after 24 hrs qRT-PCR analysis", "conditions": "time 48.0 hrs"}, "[11]": {"system": "Caenorhabditis elegans", "test": "Inhibition of Gq-alpha-coupled PLC pathway in radioactive-induced Caenorhabditis elegans N2 assessed as down regulation of egl-30 mRNA expression preincubated for 24 hrs followed by gamma-radiation treatment and measured after 24 hrs qRT-PCR analysis", "conditions": "time 48.0 hrs"}, "[12]": {"system": "Caenorhabditis elegans", "test": "Inhibition of Gs-apha-coupled PKA pathway in radioactive-induced Caenorhabditis elegans N2 assessed as down regulation of kin-2 mRNA expression preincubated for 24 hrs followed by gamma-radiation treatment and measured after 24 hrs qRT-PCR analysis", "conditions": "time 48.0 hrs"}, "[13]": {"system": "Caenorhabditis elegans", "test": "Inhibition of Gq-alpha-coupled PLC pathway in radioactive-induced Caenorhabditis elegans N2 assessed as down regulation of egl-8 mRNA expression preincubated for 24 hrs followed by gamma-radiation treatment and measured after 24 hrs qRT-PCR analysis", "conditions": "time 48.0 hrs"}, "[14]": {"system": "Caenorhabditis elegans", "test": "Inhibition of Gq-alpha-coupled PLC pathway in radioactive-induced Caenorhabditis elegans N2 assessed as up regulation of goa-1 mRNA expression preincubated for 24 hrs followed by gamma-radiation treatment and measured after 24 hrs qRT-PCR analysis", "conditions": "time 48.0 hrs"}, "[15]": {"system": "Caenorhabditis elegans", "test": "Inhibition of Gs-apha-coupled PKA pathway in radioactive-induced Caenorhabditis elegans N2 assessed as down regulation of gsa-1 mRNA expression preincubated for 24 hrs followed by gamma-radiation treatment and measured after 24 hrs qRT-PCR analysis", "conditions": "time 48.0 hrs"}, "[16]": {"system": "Caenorhabditis elegans", "test": "Inhibition of cGMP signaling pathway in radioactive-induced Caenorhabditis elegans N2 assessed as down regulation of odr-1 mRNA expression preincubated for 24 hrs followed by gamma-radiation treatment and measured after 24 hrs qRT-PCR analysis", "conditions": "time 48.0 hrs"}, "[17]": {"system": "Caenorhabditis elegans", "test": "Inhibition of cGMP signaling pathway in radioactive-induced Caenorhabditis elegans N2 assessed as down regulation of daf-11 mRNA expression preincubated for 24 hrs followed by gamma-radiation treatment and measured after 24 hrs qRT-PCR analysis", "conditions": "time 48.0 hrs"}, "[18]": {"system": "Caenorhabditis elegans", "test": "Inhibition of cGMP signaling pathway in radioactive-induced Caenorhabditis elegans N2 assessed as down regulation of tax-2 mRNA expression preincubated for 24 hrs followed by gamma-radiation treatment and measured after 24 hrs qRT-PCR analysis", "conditions": "time 48.0 hrs"}, "[19]": {"system": "Caenorhabditis elegans", "test": "Inhibition of cGMP signaling pathway in radioactive-induced Caenorhabditis elegans N2 assessed as down regulation of tax-4 mRNA expression preincubated for 24 hrs followed by gamma-radiation treatment and measured after 24 hrs qRT-PCR analysis", "conditions": "time 48.0 hrs"}, "[20]": {"system": "Caenorhabditis elegans", "test": "Memory enhancement effect in radioactive-induced Caenorhabditis elegans MT1434 harboring egl-30(n686) mutant assessed as memory index preincubated for 24 hrs followed by gamma-radiation treatment and measured after 24 hrs", "format": "functional, organism-based", "conditions": "time 48.0 hrs"}, "[21]": {"system": "Caenorhabditis elegans", "test": "Memory enhancement effect in radioactive-induced Caenorhabditis elegans MY66 harboring egl-30(n686);Podr-1-mcherry::egl-30(mtIs35)] mutant assessed as memory index preincubated for 24 hrs followed by gamma-radiation treatment and measured after 24 hrs", "format": "functional, organism-based", "conditions": "time 48.0 hrs"}, "[22]": {"system": "Caenorhabditis elegans", "test": "Memory enhancement effect in radioactive-induced Caenorhabditis elegans harboring RNAi egl8;egl-30(n686)ls(Podr-1-mcherry::egl-30) mutant assessed as memory index preincubated for 24 hrs followed by gamma-radiation treatment and measured after 24 hrs", "format": "functional, organism-based", "conditions": "time 48.0 hrs"}, "[23]": {"system": "Caenorhabditis elegans", "test": "Memory enhancement effect in radioactive-induced Caenorhabditis elegans RB1341 harboring […] mutant assessed as memory index preincubated for 24 hrs followed by gamma-radiation treatment and measured after 24 hrs", "format": "functional, organism-based", "conditions": "time 48.0 hrs"}, "[24]": {"system": "Caenorhabditis elegans", "test": "Memory enhancement effect in radioactive-induced Caenorhabditis elegans harboring RNAi podr-1::unc-31 mutant assessed as memory index preincubated for 24 hrs followed by gamma-radiation treatment and measured after 24 hrs", "format": "functional, organism-based", "conditions": "time 48.0 hrs"}, "[25]": {"system": "Caenorhabditis elegans", "test": "Memory enhancement effect in radioactive-induced Caenorhabditis elegans assessed as increase in cAMP level preincubated for 24 hrs followed by gamma-radiation treatment and measured after 24 hrs", "format": "functional, organism-based", "conditions": "time 48.0 hrs"}, "[26]": {"system": "Caenorhabditis elegans", "test": "Activation of CREB in radioactive-induced Caenorhabditis elegans YT17 harboring crh-1(tz2) mutant assessed as increase in long-term memory preincubated for 24 hrs followed by gamma-radiation treatment and measured after 24 hrs", "conditions": "time 48.0 hrs"}, "[27]": {"system": "Caenorhabditis elegans", "test": "Activation of CREB in radioactive-induced Caenorhabditis elegans YT17 harboring crh-1(tz2) mutant assessed as reduction radiation-induced damage preincubated for 24 hrs followed by gamma-radiation treatment and measured after 24 hrs", "conditions": "time 48.0 hrs"}, "[28]": {"system": "Caenorhabditis elegans", "test": "Activation of CREB in radioactive-induced Caenorhabditis elegans MY36 harboring [crh-1(tz2); Pmbr-1-mcherry::crh-1(mtIs18)] mutant assessed as increase in long-term memory preincubated for 24 hrs followed by gamma-radiation treatment and measured after 24 hrs", "conditions": "filed as activator, time 48.0 hrs"}},
  "note": "Activity calls are given as the source filed them. The calls are words filed in the database; no cut-off is given here.",
  "data": [
    {"smiles": "COc1cc([C@H]2OC[C@@H]3[C@@H]2CO[C@H]3c2cc(OC)c(O[C@@H]3O[C@H](CO)[C@@H](O)[C@H](O)[C@H]3O)c(OC)c2)cc(OC)c1O[C@@H]1O[C@H](CO)[C@@H](O)[C@H](O)[C@H]1O", "values": [
      {"measurement": "Activity", "setting": "[1]", "value": "Active"},
      {"measurement": "Activity", "setting": "[2]", "value": "inactive"},
      {"measurement": "Activity", "setting": "[3]", "value": "inactive"},
      {"measurement": "Activity", "setting": "[4]", "value": "inactive"},
      {"measurement": "Activity", "setting": "[5]", "value": "inactive"},
      {"measurement": "inhibition", "setting": "[6]", "value": "Active"},
      {"measurement": "inhibition", "setting": "[7]", "value": "Active"},
      {"measurement": "inhibition", "setting": "[8]", "value": "Active"},
      {"measurement": "inhibition", "setting": "[9]", "value": "Active"},
      {"measurement": "inhibition", "setting": "[10]", "value": "Active"},
      {"measurement": "inhibition", "setting": "[11]", "value": "Active"},
      {"measurement": "inhibition", "setting": "[12]", "value": "Active"},
      {"measurement": "inhibition", "setting": "[13]", "value": "Active"},
      {"measurement": "inhibition", "setting": "[14]", "value": "Active"},
      {"measurement": "inhibition", "setting": "[15]", "value": "Active"},
      {"measurement": "inhibition", "setting": "[16]", "value": "inactive"},
      {"measurement": "inhibition", "setting": "[17]", "value": "inactive"},
      {"measurement": "inhibition", "setting": "[18]", "value": "inactive"},
      {"measurement": "inhibition", "setting": "[19]", "value": "inactive"},
      {"measurement": "Activity", "setting": "[20]", "value": "inactive"},
      {"measurement": "Activity", "setting": "[21]", "value": "Active"},
      {"measurement": "Activity", "setting": "[22]", "value": "inactive"},
      {"measurement": "Activity", "setting": "[23]", "value": "Active"},
      {"measurement": "Activity", "setting": "[24]", "value": "inactive"},
      {"measurement": "Activity", "setting": "[25]", "value": "Active"},
      {"measurement": "Activity", "setting": "[26]", "value": "inactive"},
      {"measurement": "Activity", "setting": "[27]", "value": "inactive"},
      {"measurement": "Activity", "setting": "[28]", "value": "Active"}
    ]}
  ]
}
